PubChem BioAssay (NCI)
Values joined by “and” are separate entries in the source; they are usually repeats but may differ in a detail not shown here. Identical values can stand only once.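 Dose response: 5 concentrations. Exposure: 48 h. Format: 96-well plates. Endpoint: linear interpolation; highest concentration if not reached. Here, GI50 denotes the concentration required for 50% inhibition of growth. TGI marks complete inhibition of growth.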

What was measured:
Experiment in all cases: NCI anticancer screen, dose series, 48 h
[1] = tested on: SK-MEL-5 melanoma
[2] = tested on: SK-MEL-2 melanoma
[3] = tested on: MALME-3M melanoma
[4] = tested on: SR leukemia
[5] = tested on: BT-549 breast
[6] = tested on: UO-31 renal
[7] = tested on: SF-295 CNS
[8] = tested on: M14 melanoma
[9] = tested on: HCC-2998 colon
[10] = tested on: HS 578T breast

| Structure (SMILES) | TGI [1] | TGI [2] | TGI [3] | TGI [4] | TGI [5] | TGI [6] | TGI [7] | TGI [8] | TGI [9] | TGI [10] | GI50 [1] | GI50 [2] | GI50 [3] | GI50 [4] | GI50 [5] | GI50 [6] | GI50 [7] | GI50 [8] | GI50 [9] | GI50 [10] |
| --- | --- | --- | --- | --- | --- | --- | --- | --- | --- | --- | --- | --- | --- | --- | --- | --- | --- | --- | --- | --- |
| CC(C)OC(=O)Nc1c([N+](=O)[O-])cc(C(F)(F)F)cc1[N+](=O)[O-] | > 100 µM | > 100 µM | > 100 µM | > 100 µM | > 100 µM | > 100 µM | 98.2 µM | > 100 µM | > 100 µM | > 100 µM | – | – | – | – | – | – | – | – | – | – |
| CCN(CC)CCN1C(=O)C2C3C(C)=CC(OC(C)=O)(CC3C)C2C1=O (stereo unspecified) | > 100 µM | > 100 µM | > 100 µM | > 100 µM | > 100 µM | > 100 µM | > 100 µM | > 100 µM | > 100 µM | > 100 µM | > 100 µM | > 100 µM | > 100 µM | > 100 µM | > 100 µM | > 100 µM | > 100 µM | > 100 µM | > 100 µM | 75.3 µM |
| C=C1C(=O)O[C@@H]2C[C@@]3(C)CCC[C@H](C)C3=C[C@H]12 (tested in a mixture with another compound) | 3.9 µM | 5.41 µM | 2.42 µM | 3.26 µM | 3.31 µM | 3.57 µM | 24.6 µM | 2.75 µM | 15.5 µM | 17.3 µM | – | – | – | – | – | – | – | – | – | – |
| CCOc1cc(/C=C/C(=O)CC(=O)/C=C/c2ccc(OC(=O)CNc3nc4ccc(OC)cc4s3)c(OCC)c2)ccc1OC(=O)CNc1nc2ccc(OC)cc2s1 | 17.2 µM | 29.1 µM | 27.3 µM | 4.66 µM | 8.78 µM | > 100 µM | 33.2 µM | 22.5 µM | 14.8 µM | 23.9 µM | 5.25 µM | 4.94 µM | 12.3 µM | 1.77 µM | 2.62 µM | 2.58 µM | 15.4 µM | 5.18 µM | 3.16 µM | 3.16 µM |
| N#Cc1nc2cc(Cl)c(Cl)cc2nc1-c1ccc(Cl)cc1 | > 100 µM | > 100 µM | > 100 µM | 53.1 µM | > 100 µM | > 100 µM | 43.1 µM | > 100 µM | 18.2 µM | 70.2 µM | 44.3 µM | > 56 µM | > 42.2 µM | 22 µM | > 100 µM | 34.7 µM | 19.6 µM | > 85.3 µM | 0.165 µM | 17.1 µM |
| CN(C)CCN1C(=O)c2cccc3cc(N)cc(c23)C1=O | 4.44 µM and 6.46 µM | 13 µM and 9.4 µM | 9.85 µM and 8.29 µM | > 40.8 µM and 11 µM | 28.3 µM and 13.1 µM | 43.1 µM and 12.8 µM | 9.31 µM and 18.4 µM | 16.7 µM and 8.69 µM | 22.1 µM and 12 µM | 50.9 µM and 21.2 µM | 1.88 µM | 3.73 µM | 2.41 µM | 3.38 µM and 0.824 µM | 11.2 µM | 2.09 µM | 2.29 µM | – | 4.69 µM | 10.4 µM |
| CC(=O)Nc1ccc(CC[C@H]2CCC/C=C/[C@@H]3C[C@H](O)C[C@H]3[C@H](O)/C=C/C(=O)O2)cc1 | 0.0348 µM | 0.963 µM | 0.573 µM | – | > 100 µM | – | > 100 µM | > 100 µM | – | > 93.7 µM | 0.0188 µM | 0.313 µM | 0.257 µM | 0.215 µM | 0.182 µM | 0.316 µM | 0.201 µM | 0.153 µM | 0.0781 µM | 0.0674 µM |
| O=c1[nH]c(=O)n(Cc2ccc(C34CC5CC(CC(C5)C3)C4)c(O)c2)cc1F | 23.3 µM | 39.4 µM | 30.9 µM | 19.9 µM | 28.1 µM | 29.8 µM | 27.2 µM | 29.2 µM | 28.1 µM | 41.7 µM | 11.2 µM | 15.8 µM | 14.6 µM | 5.32 µM | 14.4 µM | 14.2 µM | 9.62 µM | 11.5 µM | 14.5 µM | 15 µM |
| O=C(c1ccccc1)c1nc2ccc(Cl)cc2cc1C(Br)Br | 2.01 µM | 1.88 µM | 5.43 µM | 21.2 µM | 1.12 µM | 1.27 µM | 0.939 µM | 5.65 µM | 2.88 µM | 0.59 µM | – | – | – | – | – | – | – | – | – | – |
| CCN(Cc1ccccc1)c1ccc(/C=C2\COc3ccccc3C2=O)cc1 | > 1000 µM | > 1000 µM | > 1000 µM | > 1000 µM | > 1000 µM | > 1000 µM | > 1000 µM | > 1000 µM | > 1000 µM | > 1000 µM | 398 µM | > 1000 µM | > 1000 µM | 54 µM | 340 µM | 286 µM | > 1000 µM | 330 µM | > 1000 µM | > 1000 µM |
| Cc1ccc(NC(=O)c2ccoc2)cc1-c1ccc(C(=O)NCC2CC2)cc1 | > 25 µM | > 25 µM | > 25 µM | > 25 µM | > 25 µM | > 17.1 µM | > 25 µM | > 25 µM | > 25 µM | > 25 µM | 7.75 µM | > 25 µM | > 12.9 µM | > 25 µM | > 19.7 µM | > 9.98 µM | > 14.8 µM | > 25 µM | > 25 µM | > 19.3 µM |
| CC(C)Cn1cnc2c(N)nc3ccccc3c21 | 50.3 µM | > 100 µM | > 100 µM | > 100 µM | > 100 µM | > 100 µM | > 100 µM | > 100 µM | > 100 µM | > 100 µM | 18.4 µM | 41.5 µM | > 100 µM | > 100 µM | 43.8 µM | 35.8 µM | 51.3 µM | 43.9 µM | > 63.5 µM | 60.8 µM |
| O=C(O)c1c2c(c(O)c3c1CN(C1CCCCC1)CO3)OCN(C1CCCCC1)C2 | > 100 µM | > 100 µM | > 100 µM | 73 µM | > 100 µM | > 100 µM | > 100 µM | > 100 µM | 84.1 µM | > 100 µM | – | – | – | – | – | – | – | – | – | – |
| CN1CCC2(CC1)C(=O)Nc1cc(NC(=O)c3ccc4c(c3)C[C@@H]3C(C)(C)[C@H](O)[C@H](F)C[C@@]3(C)O4)ccc12 | 12.3 µM | 32.3 µM | 9.79 µM | 88.2 µM | 20.1 µM | 19.1 µM | 0.256 µM | 4.37 µM | 48.3 µM | 2.24 µM | 2.62 µM | 11.3 µM | 1.49 µM | 0.0514 µM | 0.0691 µM | 4.67 µM | 0.0495 µM | 0.549 µM | 14.2 µM | 0.0232 µM |
| Cc1ccc(/C=C/C(=O)c2ccc(F)cc2)s1 | 24.9 µM | 15.6 µM | 3.74 µM | 20 µM | 8.49 µM | 4.04 µM | 18.8 µM | 26.7 µM | 5.14 µM | 9.7 µM | 12.2 µM | 4.35 µM | 1.74 µM | 2.86 µM | 3.02 µM | 1.69 µM | 5.38 µM | 7.89 µM | 2.2 µM | 3.35 µM |
| O=C(Nc1ccccc1/C=C/c1n[nH]c2ccccc12)c1ccccc1 | 16.5 µM | 16.5 µM | 12 µM | 13.7 µM | 16.1 µM | 19.3 µM | 5.57 µM | 15 µM | 4.23 µM | 17.7 µM | 3.81 µM | 5.03 µM | 4.05 µM | 2.87 µM | 3.97 µM | 4.14 µM | 2.13 µM | 3.32 µM | 1.62 µM | 3.64 µM |
| O=C(O)C1CCCN1 (stereo unspecified) | > 100 µM | > 100 µM | > 100 µM | > 100 µM | > 100 µM | > 100 µM | > 100 µM | > 100 µM | > 100 µM | > 100 µM | – | – | – | – | – | – | – | – | – | – |
| CC[C@@H]1C(=O)N(C)c2cnc(Nc3ccc(C(=O)NC4CCC(N5CCN(CC6CC6)CC5)CC4)cc3OC)nc2N1C(C)C (stereo partly specified) | 0.517 µM and 0.654 µM | 1.97 µM and 2.27 µM | > 4.91 µM and 3.08 µM | 1.32 µM and 1.51 µM | > 10 µM and 6.44 µM | > 10 µM and 7.53 µM | 2.51 µM and 2.44 µM | > 3.81 µM and 2.39 µM | > 4.12 µM and 2.83 µM | 1.97 µM | 0.0409 µM and 0.0472 µM | 0.0221 µM and 0.0351 µM | 0.607 µM and 1.39 µM | 0.0134 µM and 0.0123 µM | 0.078 µM and 0.0387 µM | 0.234 µM and 0.345 µM | 0.0353 µM and 0.0406 µM | 0.00963 µM and 0.0349 µM | 0.0289 µM and 0.0374 µM | 0.0323 µM and 0.111 µM |
| C[C@]12CC[C@H]3[C@@H](CCC4=CC(=O)CC[C@@]43C)[C@]1(O)CC[C@]2(O)C(=O)CO | > 100 µM | > 100 µM | > 100 µM | > 100 µM | > 100 µM | > 100 µM | > 100 µM | > 100 µM | > 100 µM | > 100 µM | – | – | – | – | – | – | – | – | – | – |
| COc1cc(-c2csc(NC(=O)Nc3ccc(Cl)cc3)n2)cc(OC)c1OC | 5.2 µM | 5.04 µM | 6.32 µM | > 100 µM | 6.26 µM | 7.68 µM | 8.45 µM | 5.92 µM | 18.8 µM | 20.3 µM | 2.2 µM | 2.18 µM | 2.11 µM | 4.36 µM | 2.18 µM | 2.35 µM | 2.51 µM | 2.27 µM | 3.9 µM | 3.58 µM |
